Results: patent publication US20140148454A1, “SUBSTITUTED AMINO-ACRYLCARBOXAMIDES AS KCNQ2/3 MODULATORS” (GRÜNENTHAL GMBH, priority 2012, published 2014)
pEC50: −log10 of the molar value.

Target: T1, KCNQ2/3 channels (Homo sapiens, UniProt O43525+O43526)
T1 construct: expressed in transfected cells; host or cells: CHO-K1 cells kept under selection antibiotics
Experiment: Fluorescence assay using a voltage sensitive dye (fluorimetry)
Assay type: cell-based
Settings: CHO-K1 cells expressing KCNQ2/3 channels; for Emax: relative to retigabine = 100%, read-out: Fluorimetry % efficacy (retigabine = 100%); for pEC50: voltage-sensitive dye, read-out: Fluorimetry EC50/IC50
Procedure: Method I. Fluorescence Assay Using a Voltage Sensitive Dye (Fluorimetry) […] CHO-K1 cells expressing KCNQ2/3 channels are cultivated adherently at 37° C., 5% CO2 and 95% humidity in cell culture bottles (e.g. 80 cm^2 TC flasks, Nunc) with DMEM-high glucose (Sigma Aldrich, D7777) including 10% FCS (PAN Biotech, e.g. 3302-P270521) or alternatively MEM Alpha Medium (1×, liquid, Invitrogen, #22571), 10% fetal calf serum (FCS) (Invitrogen, #10270-106, heat-inactivated) and the necessary selection antibiotics.
Before being sown out for the measurements, the cells are washed with 1×DPBS buffer Ca^2+/Mg^2+-free (e.g. Invitrogen, #14190-094) and detached from the bottom of the culture vessel by using Accutase (PAA Laboratories, #L11-007) (incubation with Accutase for 15 min at 37° C.). The cell number is determined using a CASY™ cell counter (TCC, Scharfe System). Depending on the optimal density for each individual cell line, 20,000-30,000 cells/well/100 μl are seeded onto 96-well Corning™ CeIIBIND™ assay plates (Flat Clear Bottom Black Polystyrene Microplates, #3340). Freshly seeded cells are then left to settle for one hour at room temperature, followed by incubation for 24 hours at 37° C., 5% CO2 and 95% humidity.
The voltage-sensitive fluorescent dye from the Membrane Potential Assay Kit (Red™ Bulk format part R8123 for FLIPR, MDS Analytical Technologies™) is prepared by dissolving the contents of one vessel Membrane Potential Assay Kit Red Component A in 200 ml of extracellular buffer (ES buffer, 120 mM NaCl, 1 mM KCl, 10 mM HEPES, 2 mM CaCl2, 2 mM MgCl2, 10 mM glucose; pH 7.4). After removal of the nutrient medium, the cells are washed once with 200 μl of ES buffer, then loaded for 45 min at room temperature in 100 μl of dye solution in the dark.
Fluorescence measurements are carried out in a BMG Labtech FLUOstar™, BMG Labtech NOVOstar™ or BMG Labtech POLARstar™ instrument (525 nm excitation, 560 nm emission, Bottom Read mode). After incubation with the dye, 50 μl of the test substances in the desired concentrations, or 50 μl of ES buffer for control purposes, are applied to the wells of the assay plate and incubated for 30 min at room temperature while being shielded from light. The fluorescence intensity of the dye is then measured for 5 min and the fluorescence value F1 of each well is thus determined at a given, constant time. 15 μl of a KCl solution are then added to each well (final concentration of potassium ions 92 mM). The change in fluorescence intensity is subsequently monitored until all the relevant values have been obtained (mainly 5-30 min). At a given time post KCl application, a fluorescence value F2 is determined, in this case at the time of the fluorescence peak.
For calculation, the fluorescence intensity F2 is corrected for the fluorescence intensity F1, and the activity (ΔF/F) of the target compound on the potassium channel is determined as follows:
In order to determine whether a substance has agonistic activity, is determined by adding to the well only the buffer solution instead of the test substance, determining the value F1K of the fluorescence intensity, adding the potassium ions as described above, and measuring a value F2K of the fluorescence intensity. F2K and F1K are then calculated as follows: […]
A substance has an agonistic activity on the potassium channel if it is possible to conclude that a target compound has agonistic activity if Calculations of EC50 and IC50 values are carried out with the aid of ‘Prism v4.0’ software (GraphPad Software™).

Row | Emax [%] | pEC50 | SMILES
1 | 137 | 6.87 | CCSc1nc(N2CCOCC2)nc(C)c1C(=O)NCc1ccc(Cl)cc1 [Example 1, N-[(4-Chlorophenyl)-methyl]-4-ethylsulfanyl-6-methyl-2-morpholin-4-yl-pyrimidine-5-carboxylic acid amide]
2 | 147 | 6.50 | COc1nc(N2CCOCC2)nc(OC)c1C(=O)NCc1ccc(Cl)cc1 [Example 2, N-[(4-Chlorophenyl)-methyl]-4,6-dimethoxy-2-morpholin-4-yl-pyrimidine-5-carboxylic acid amide]
3 | 171 | 6.25 | CCSc1cc(N2CCOCC2)nc(C)c1C(=O)NCc1ccc(Cl)cc1 [Example 3, N-[(4-Chlorophenyl)-methyl]-4-ethylsulfanyl-2-methyl-6-morpholin-4-yl-pyridine-3-carboxylic acid amide]
4 | 218 | 5.87 | CCOc1cc(N2CCOCC2)nc(C)c1C(=O)NCCCC(C)(C)C [Example 5, N-(4,4-Dimethyl-pentyl)-4-ethoxy-2-methyl-6-morpholin-4-yl-pyridine-3-carboxylic acid amide]
5 | 109 | 6.32 | CC(C)c1nc(N2CCOCC2)cnc1C(=O)NCc1ccc(Cl)cc1 [Example 7, N-[(4-Chlorophenyl)-methyl]-3-isopropyl-5-morpholin-4-yl-pyrazine-2-carboxylic acid amide]
6 | 104 | 6.42 | CC(C)c1nc(N(C)C2CCOCC2)sc1C(=O)NC(C)c1cccc(OC(F)(F)F)c1 (centres unmarked) [Example 9, 4-Isopropyl-2-(methyl-tetrahydro-pyran-4-yl-amino)-N-[1-[3-(trifluoromethyloxy)-phenyl]ethyl]-thiazole-5-carboxylic acid amide]
7 | 165 | 6.85 | CCSc1nc(N2CCOCC2)nc(C)c1C(=O)NCc1cccc(F)c1 [Example 10, 4-Ethylsulfanyl-N-[(3-fluorophenyl)-methyl]-6-methyl-2-morpholin-4-yl-pyrimidine-5-carboxylic acid amide]
8 | 145 | 5.83 | CCSc1cc(N2CCOCC2)nc(C)c1C(=O)NCc1ccc(F)cc1 [Example 12, 4-Ethylsulfanyl-N-[(4-fluorophenyl)-methyl]-2-methyl-6-morpholin-4-yl-pyridine-3-carboxylic acid amide]
9 | 241 | 6.50 | CCSc1cc(N2CCOCC2)nc(C)c1C(=O)NCCCC(C)(C)C [Example 13, N-(4,4-Dimethyl-pentyl)-4-ethylsulfanyl-2-methyl-6-morpholin-4-yl-pyridine-3-carboxylic acid amide]
10 | 176 | 6.71 | CCSc1cc(N2CCOC[C@H]2C)nc(C)c1C(=O)NCc1ccc(Cl)cc1 [Example 14, N-[(4-Chlorophenyl)-methyl]-4-ethylsulfanyl-2-methyl-6-[(3R)-3-methyl-morpholin-4-yl]-pyridine-3-carboxylic acid amide]
11 | 247 | 7.09 | CCSc1cc(N2CCOC[C@H]2C)nc(C)c1C(=O)NCCCC(C)(C)C [Example 15, N-(4,4-Dimethyl-pentyl)-4-ethylsulfanyl-2-methyl-6-[(3R)-3-methyl-morpholin-4-yl]-pyridine-3-carboxylic acid amide]
12 | 178 | 5.85 | Cc1nc(N2CCOCC2)cc(C2CC2)c1C(=O)NCc1ccc(Cl)cc1 [Example 16, N-[(4-Chlorophenyl)-methyl]-4-cyclopropyl-2-methyl-6-morpholin-4-yl-pyridine-3-carboxylic acid amide]
13 | 180 | 6.30 | Cc1nc(N2CCOCC2)cc(C(C)C)c1C(=O)NCc1ccc(Cl)cc1 [Example 17, N-[(4-Chlorophenyl)-methyl]-4-isopropyl-2-methyl-6-morpholin-4-yl-pyridine-3-carboxylic acid amide]
14 | 88 | 6.66 | CCC(C)c1nc(N2CCOCC2)cnc1C(=O)NCc1ccc(Cl)cc1 (centres unmarked) [Example 20, N-[(4-Chlorophenyl)-methyl]-3-(1-methyl-propyl)-5-morpholin-4-yl-pyrazine-2-carboxylic acid amide]
15 | 132 | 5.98 | CCC(C)c1nc(N2CCOCC2)cnc1C(=O)NCCC1CCCC1 (centres unmarked) [Example 21, N-(2-Cyclopentyl-ethyl)-3-(1-methyl-propyl)-5-morpholin-4-yl-pyrazine-2-carboxylic acid amide]
16 | 78 | 6.34 | CC(C)c1nc(N(C)CC2CCOCC2)sc1C(=O)NC(C)c1cccc(OC(F)(F)F)c1 (centres unmarked) [Example 22, 4-Isopropyl-2-[methyl-(tetrahydro-pyran-4-yl-methyl)-amino]-N-[1-[3-(trifluoromethyloxy)-phenyl]-ethyl]-thiazole-5-carboxylic acid amide]
17 | 98 | 5.94 | CC(C)c1nc(N(C)C2CCOCC2)sc1C(=O)NCc1ccc(Cl)cc1 [Example 23, N-[(4-Chlorophenyl)-methyl]-4-isopropyl-2-(methyl-tetrahydro-pyran-4-yl-amino)-thiazole-5-carboxylic acid amide]
18 | 48 | 5.90 | CC(C)c1nc(N2CCOCC2)sc1C(=O)NCc1ccc(Cl)cc1 [Example 25, N-[(4-Chlorophenyl)-methyl]-4-isopropyl-2-morpholin-4-yl-thiazole-5-carboxylic acid amide]
19 | 131 | 5.90 | CC(NC(=O)c1sc(N(C)C2CCOCC2)nc1C(F)(F)F)c1cccc(OC(F)(F)F)c1 (centres unmarked) [Example 35, 2-(Methyl-tetrahydro-pyran-4-yl-amino)-4-(trifluoromethyl)-N-[1-[3-(trifluoromethyloxy)-phenyl]-ethyl]-thiazole-5-carboxylic acid amide]
20 | 125 | 5.96 | CN(c1nc(C(F)(F)F)c(C(=O)NCc2cccc(OC(F)(F)F)c2)s1)C1CCOCC1 [Example 36, 2-(Methyl-tetrahydro-pyran-4-yl-amino)-4-(trifluoromethyl)-N-[[3-(trifluoromethyloxy)-phenyl]-methyl]-thiazole-5-carboxylic acid amide]
21 | 102 | 5.90 | CN(c1nc(C(F)(F)F)c(C(=O)NCc2ccc(Cl)cc2)s1)C1CCOCC1 [Example 38, N-[(4-Chlorophenyl)-methyl]-2-(methyl-tetrahydro-pyran-4-yl-amino)-4-(trifluoromethyl)-thiazole-5-carboxylic acid amide]
22 | 78 | 5.89 | CC(NC(=O)c1sc(N2CCOCC2)nc1C(F)(F)F)c1cccc(OC(F)(F)F)c1 (centres unmarked) [Example 40, 2-Morpholin-4-yl-4-(trifluoromethyl)-N-[1-[3-(trifluoromethyloxy)-phenyl]ethyl]-thiazole-5-carboxylic acid amide]
